The values that follow come from BindingDB's records for doi:10.1021/bi4011286 (University of Michigan, 2013).

The structures appear in SMILES notation.

In test [1] the target is T1, DNA primase (Bacillus anthracis, UniProt A0A6L8PXB3).
T1 sequence (A0A6L8PXB3 whole entry): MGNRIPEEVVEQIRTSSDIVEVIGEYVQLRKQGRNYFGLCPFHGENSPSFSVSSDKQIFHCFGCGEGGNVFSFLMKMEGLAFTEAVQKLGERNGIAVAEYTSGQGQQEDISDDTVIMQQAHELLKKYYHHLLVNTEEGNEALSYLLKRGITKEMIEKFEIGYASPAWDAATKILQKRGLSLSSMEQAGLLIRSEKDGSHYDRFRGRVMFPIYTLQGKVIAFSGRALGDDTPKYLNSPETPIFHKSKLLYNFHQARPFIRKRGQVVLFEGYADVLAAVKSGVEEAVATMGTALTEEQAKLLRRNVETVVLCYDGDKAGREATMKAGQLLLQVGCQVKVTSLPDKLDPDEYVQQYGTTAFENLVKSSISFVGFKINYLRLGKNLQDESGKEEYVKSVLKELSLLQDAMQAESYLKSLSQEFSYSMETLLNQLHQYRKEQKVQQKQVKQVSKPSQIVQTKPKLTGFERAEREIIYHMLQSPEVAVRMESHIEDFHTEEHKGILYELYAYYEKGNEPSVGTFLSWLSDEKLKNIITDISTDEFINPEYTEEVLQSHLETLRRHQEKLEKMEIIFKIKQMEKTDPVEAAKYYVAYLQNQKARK
The test is described as follows: Quatitative Inhibition Analysis Assay. The settings on record: pH 8.8. On the procedure:
(§1) The reaction mixture contained DNA (1.25 uM or as specified), NTP (110 uM or as specified), 50 mM NaCl, 150 mM potassium glutamate, buffer [20 mM CAPS (pH 8.8) or as specified], and divalent metals (2 mM Mn2+ and 1 mM Mg2+). The assay was performed in 96-well plates with 4 uM Ba DnaG.

The target in test [2] is T2, DNA primase (Mycobacterium tuberculosis (strain CDC 1551 / Oshkosh), UniProt P9WNW0).
T2 sequence (P9WNW0 whole entry): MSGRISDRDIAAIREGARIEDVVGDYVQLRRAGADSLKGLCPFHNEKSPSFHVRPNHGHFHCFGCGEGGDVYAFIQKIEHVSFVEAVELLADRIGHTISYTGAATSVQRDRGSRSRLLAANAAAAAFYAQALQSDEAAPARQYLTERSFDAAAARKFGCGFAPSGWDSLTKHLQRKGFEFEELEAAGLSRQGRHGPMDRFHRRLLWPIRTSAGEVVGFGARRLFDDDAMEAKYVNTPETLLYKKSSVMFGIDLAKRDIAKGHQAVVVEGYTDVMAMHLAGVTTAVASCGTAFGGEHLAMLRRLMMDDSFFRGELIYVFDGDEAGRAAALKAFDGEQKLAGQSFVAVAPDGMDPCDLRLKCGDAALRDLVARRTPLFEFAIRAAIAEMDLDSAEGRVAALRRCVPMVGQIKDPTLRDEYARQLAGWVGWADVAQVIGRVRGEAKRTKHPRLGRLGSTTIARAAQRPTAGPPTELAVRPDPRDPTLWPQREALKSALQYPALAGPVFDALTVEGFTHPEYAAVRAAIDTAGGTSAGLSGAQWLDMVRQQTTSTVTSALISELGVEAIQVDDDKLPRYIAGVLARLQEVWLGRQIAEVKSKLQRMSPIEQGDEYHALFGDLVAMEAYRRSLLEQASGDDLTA
The test is described as follows: Quatitative Inhibition Analysis Assay. Conditions: pH 8.8. On the procedure:
as §1

Usually IC50 stands for the midpoint of a concentration-inhibition curve. Low values mean greater potency in that assay, high ones weaker potency in that assay. On to `COc1cccc2c1C(=O)c1c(O)c3c(c(O)c1C2=O)C[C@@](O)(C(=O)CO)C[C@@H]3O[C@H]1C[C@H](N)[C@H](O)[C@H](C)O1` [Adriamycin], for which the IC50 in test [1] is 4.4 µM; in test [2], 9.3 µM.

Take `CCN(CC)CCOc1ccc2c(c1)C(=O)c1cc(OCCN(CC)CC)ccc1-2` [Amixin IC]: the IC50 in test [1] was determined as 7.1 µM; in test [2], 69 µM.

Compound `O=c1oc2c(O)c(O)cc3c(=O)oc4c(O)c(O)cc1c4c23` [Elagic Acid] showed an IC50 in test [1] greater than 100 µM.

For the compound `C[C@H]1COc2c(N3CCN(C)CC3)c(F)cc3c(=O)c(C(=O)O)cn1c23` [Levaquin], the IC50 in test [1] came to 75 µM.

In turn, `Cc1ccc(C(=O)Nc2ccc(S(=O)(=O)O)c3cc(S(=O)(=O)O)cc(S(=O)(=O)O)c23)cc1NC(=O)c1cccc(NC(=O)Nc2cccc(C(=O)Nc3cc(C(=O)Nc4ccc(S(=O)(=O)O)c5cc(S(=O)(=O)O)cc(S(=O)(=O)O)c45)ccc3C)c2)c1` [Suramin hexasodium] returned an IC50 in test [1] of 8.2 µM.
